Experimental data taken from ChEMBL document CHEMBL1201862, “PubChem BioAssay data set” (2004).
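Dose response: 5 concentrations. Exposure: 48 h. Format: 96-well plates. Endpoint: linear interpolation; highest concentration if not reached. GI50 is the concentration that inhibits growth by half.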 The source made the active and inactive calls. No stated cut-off is given here; in the data, active = GI50 up to about 1.1 µM and inactive = higher.

What was measured:
Experiment in all cases: NCI tumour cell line growth inhibition, 48 h
K562 = tested on: K562
LXFL 529 = tested on: LXFL 529
NCI-H226 = tested on: NCI-H226
MOLT-4 = tested on: MOLT-4
SW-620 = tested on: SW-620
HCC 2998 = tested on: HCC 2998
HL-60 = tested on: HL-60
IGROV-1 = tested on: IGROV-1
SNB-75 = tested on: SNB-75
CAKI-1 = tested on: CAKI-1
NCI-H23 = tested on: NCI-H23
SK-OV-3 = tested on: SK-OV-3
DMS-114 = tested on: DMS-114
DMS-273 = tested on: DMS-273
Malme-3M = tested on: Malme-3M
HCT-116 = tested on: HCT-116
UACC-257 = tested on: UACC-257
LOX IMVI = tested on: LOX IMVI
SF-295 = tested on: SF-295
SK-MEL-28 = tested on: SK-MEL-28
COLO 205 = tested on: COLO 205
EKVX = tested on: EKVX
SK-MEL-2 = tested on: SK-MEL-2
HCT-15 = tested on: HCT-15
OVCAR-5 = tested on: OVCAR-5
RPMI-8226 = tested on: RPMI-8226
SN12C = tested on: SN12C
DLD-1 = tested on: DLD-1
M19-MEL = tested on: M19-MEL
XF498 = tested on: XF498
HOP-18 = tested on: HOP-18
U-251 = tested on: U-251
HOP-92 = tested on: HOP-92
ACHN = tested on: ACHN
SNB-78 = tested on: SNB-78
SF-539 = tested on: SF-539
CCRF-CEM = tested on: CCRF-CEM
NCI-H522 = tested on: NCI-H522
SK-MEL-5 = tested on: SK-MEL-5
OVCAR-4 = tested on: OVCAR-4
UACC-62 = tested on: UACC-62
UO-31 = tested on: UO-31
TK-10 = tested on: TK-10
M14 = tested on: M14
OVCAR-3 = tested on: OVCAR-3
OVCAR-8 = tested on: OVCAR-8
SNB-19 = tested on: SNB-19
SR = tested on: SR
HOP-62 = tested on: HOP-62
RXF 631 = tested on: RXF 631
KM12 = tested on: KM12
A549 = tested on: A549
KM-20L2 = tested on: KM-20L2
HT-29 = tested on: HT-29
786-0 = tested on: 786-0
NCI-H460 = tested on: NCI-H460
MDA-MB-435 = tested on: MDA-MB-435
Hs-578T = tested on: Hs-578T
A498 = tested on: A498
MDA-N = tested on: MDA-N
DU-145 = tested on: DU-145
RXF 393 = tested on: RXF 393
BT-549 = tested on: BT-549
MCF7 = tested on: MCF7
T47D = tested on: T47D
NCI/ADR-RES = tested on: NCI/ADR-RES
MDA-MB-231 = tested on: MDA-MB-231
SF-268 = tested on: SF-268
PC-3 = tested on: PC-3

## COc1ccc(Br)c(N/N=C2\CCCNC2=O)c1
K562
  GI50: > 100 µM (inactive)
LXFL 529
  GI50: > 100 µM (inactive)
NCI-H226
  GI50: > 100 µM (inactive)
MOLT-4
  GI50: 69 µM (inactive)
SW-620
  GI50: 71.1 µM (inactive)
HCC 2998
  GI50: > 100 µM (inactive)
HL-60
  GI50: 68.5 µM (inactive)
IGROV-1
  GI50: 96.4 µM (inactive)
SNB-75
  GI50: 23.1 µM (inactive)
CAKI-1
  GI50: 36.3 µM (inactive)
NCI-H23
  GI50: > 100 µM (inactive)
SK-OV-3
  GI50: 81.3 µM (inactive)
DMS-114
  GI50: 90.8 µM (inactive)
DMS-273
  GI50: > 100 µM (inactive)
Malme-3M
  GI50: > 100 µM (inactive)
HCT-116
  GI50: > 100 µM (inactive)
UACC-257
  GI50: > 100 µM (inactive)
LOX IMVI
  GI50: > 100 µM (inactive)
SF-295
  GI50: > 100 µM (inactive)
SK-MEL-28
  GI50: > 100 µM (inactive)
COLO 205
  GI50: 48 µM (inactive)
EKVX
  GI50: 22.6 µM (inactive)
SK-MEL-2
  GI50: > 100 µM (inactive)
HCT-15
  GI50: > 100 µM
OVCAR-5
  GI50: 44.6 µM (inactive)
RPMI-8226
  GI50: 51.5 µM (inactive)
SN12C
  GI50: > 100 µM (inactive)
DLD-1
  GI50: > 100 µM (inactive)
M19-MEL
  GI50: > 100 µM (inactive)
XF498
  GI50: 69.2 µM (inactive)
HOP-18
  GI50: 39.6 µM (inactive)
U-251
  GI50: 86.3 µM (inactive)
HOP-92
  GI50: 48.9 µM (inactive)
ACHN
  GI50: 40.4 µM (inactive)
SNB-78
  GI50: > 100 µM (inactive)
SF-539
  GI50: 95.5 µM (inactive)
CCRF-CEM
  GI50: > 100 µM (inactive)
NCI-H522
  GI50: 58.5 µM (inactive)
SK-MEL-5
  GI50: 96.6 µM (inactive)
OVCAR-4
  GI50: > 100 µM (inactive)
UACC-62
  GI50: > 100 µM (inactive)
UO-31
  GI50: 32.1 µM (inactive)
TK-10
  GI50: 57 µM (inactive)
M14
  GI50: > 100 µM (inactive)
OVCAR-3
  GI50: > 100 µM (inactive)
OVCAR-8
  GI50: > 100 µM (inactive)
SNB-19
  GI50: > 100 µM (inactive)
SR
  GI50: 4.71 µM (inactive)
HOP-62
  GI50: > 100 µM (inactive)
RXF 631
  GI50: > 100 µM (inactive)
KM12
  GI50: > 100 µM (inactive)
A549
  GI50: > 100 µM (inactive)
KM-20L2
  GI50: > 100 µM (inactive)
HT-29
  GI50: > 100 µM (inactive)
786-0
  GI50: > 100 µM (inactive)
NCI-H460
  GI50: > 100 µM (inactive)

## Cn1c(=O)nc2n(-c3ccc(Cl)cc3)c3cc(Cl)ccc3nc-2c1=O
K562
  GI50: 2.37 µM (inactive)
MDA-MB-435
  GI50: 1.68 µM (inactive)
LXFL 529
  GI50: 1.7 µM (inactive)
NCI-H226
  GI50: 25.8 µM (inactive)
MOLT-4
  GI50: 3.61 µM (inactive)
SW-620
  GI50: 2.12 µM (inactive)
Hs-578T
  GI50: 2.48 µM (inactive)
A498
  GI50: 14.3 µM (inactive)
MDA-N
  GI50: 1.48 µM (inactive)
DU-145
  GI50: 15.6 µM (inactive)
HCC 2998
  GI50: 4.49 µM (inactive)
HL-60
  GI50: 2.06 µM (inactive)
IGROV-1
  GI50: 1.6 µM (inactive)
SNB-75
  GI50: 7.14 µM (inactive)
CAKI-1
  GI50: 10.9 µM (inactive)
NCI-H23
  GI50: 3.33 µM (inactive)
SK-OV-3
  GI50: 18.3 µM (inactive)
DMS-114
  GI50: 1.78 µM (inactive)
DMS-273
  GI50: 3.56 µM (inactive)
Malme-3M
  GI50: 1.89 µM (inactive)
HCT-116
  GI50: 3.92 µM (inactive)
UACC-257
  GI50: 1.82 µM (inactive)
LOX IMVI
  GI50: 2.03 µM (inactive)
SF-295
  GI50: 10.9 µM (inactive)
SK-MEL-28
  GI50: 3.2 µM (inactive)
COLO 205
  GI50: 2.11 µM (inactive)
EKVX
  GI50: 8.85 µM (inactive)
SK-MEL-2
  GI50: 2.55 µM (inactive)
HCT-15
  GI50: 1.82 µM
OVCAR-5
  GI50: 15 µM (inactive)
RPMI-8226
  GI50: 3.79 µM (inactive)
SN12C
  GI50: 6.21 µM (inactive)
DLD-1
  GI50: 1.79 µM (inactive)
M19-MEL
  GI50: 1.75 µM (inactive)
XF498
  GI50: 1.41 µM (inactive)
HOP-18
  GI50: 14.9 µM (inactive)
RXF 393
  GI50: 4.45 µM (inactive)
BT-549
  GI50: 4.12 µM (inactive)
U-251
  GI50: 17.7 µM (inactive)
HOP-92
  GI50: 7.31 µM (inactive)
MCF7
  GI50: 0.577 µM (active)
ACHN
  GI50: 12.6 µM (inactive)
SNB-78
  GI50: > 37.9 µM (inactive)
SF-539
  GI50: 16.5 µM (inactive)
CCRF-CEM
  GI50: 5.82 µM (inactive)
NCI-H522
  GI50: 2.99 µM (inactive)
SK-MEL-5
  GI50: 1.67 µM (inactive)
T47D
  GI50: 0.92 µM (active)
OVCAR-4
  GI50: 1.32 µM (inactive)
UACC-62
  GI50: 1.88 µM (inactive)
NCI/ADR-RES
  GI50: 8.51 µM (inactive)
UO-31
  GI50: 11.4 µM (inactive)
TK-10
  GI50: 20 µM (inactive)
M14
  GI50: 2.07 µM (inactive)
OVCAR-3
  GI50: 1.95 µM (inactive)
OVCAR-8
  GI50: 2.72 µM (inactive)
MDA-MB-231
  GI50: 3.17 µM (inactive)
SNB-19
  GI50: 14.3 µM (inactive)
SR
  GI50: 3.93 µM (inactive)
HOP-62
  GI50: 18.1 µM (inactive)
SF-268
  GI50: 3.08 µM (inactive)
RXF 631
  GI50: 1.97 µM (inactive)
KM12
  GI50: 5.52 µM (inactive)
PC-3
  GI50: 9.42 µM (inactive)
A549
  GI50: 12.9 µM (inactive)
KM-20L2
  GI50: 3.44 µM (inactive)
HT-29
  GI50: 2.62 µM (inactive)
786-0
  GI50: 10.5 µM (inactive)
NCI-H460
  GI50: 10 µM (inactive)
